{"source": "patent US6737383B1", "about": "“Herbicidal oxadiazolidines” (priority 1999, dated 2004)", "key": {"winter wheat [1]": {"test_system": "winter wheat", "test": "Test E winter wheat", "type": "in vivo, Triticum aestivum", "details": "Postemergence; for Plant response rating, Wheat (winter): 0 to 100 scale", "in_short": "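Compound formulated with surfactant in a non-phytotoxic solvent (postemergence: young 1- to 4-leaf plants); held in greenhouse approx. 21–28 days; visual assessment against untreated plants.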"}, "blackgrass": {"test_system": "blackgrass", "test": "Test E blackgrass", "type": "in vivo, Alopecurus myosuroides", "details": "Preemergence"}, "Italian ryegrass": {"test_system": "Italian ryegrass", "test": "Test E Italian ryegrass", "type": "in vivo, Lolium multiflorum", "details": "Preemergence"}, "winter barley": {"test_system": "winter barley", "test": "Test E winter barley", "type": "in vivo, Hordeum vulgare", "details": "Preemergence"}, "surinam grass": {"test_system": "surinam grass", "test": "Test B pre/postemergence surinam grass", "type": "in vivo, Brachiaria decumbens", "in_short": "(§1)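 Test chemicals in a non-phytotoxic solvent mixture with surfactant were sprayed preemergence onto planted seeds and postemergence onto plants 2 to 18 cm tall (1- to 4-leaf stage). After twelve to sixteen days in a greenhouse, injury was visually rated against untreated controls from 0 (no effect) to 10 (complete control).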"}, "Johnson grass": {"test_system": "Johnson grass", "test": "Test D Johnson grass", "type": "in vivo, Sorghum halepense", "details": "Preemergence, 0 to 100 scale", "in_short": "(§2)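 Greenhouse pots, seeds in sandy loam; compounds formulated in non-phytotoxic solvent with surfactant; preemergence treatments went on the soil surface within one day of planting. Injury rated visually 14 to 21 days after application on a 0 (none) to 100 (complete control) scale.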"}, "green foxtail": {"test_system": "green foxtail", "test": "Test E green foxtail", "type": "in vivo, Setaria viridis", "details": "Preemergence"}, "bamyardgrass": {"test_system": "bamyardgrass", "test": "Test B flood test barnyardgrass", "type": "in vivo, Echinochloa crus-galli", "in_short": "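Read-out is a visual response score from 0 (no effect) to 10 (complete control), assigned by comparison with untreated controls. Treatment was applied at the 2-leaf stage, and plants stayed in the greenhouse for twelve to sixteen days before scoring.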"}, "sandbur": {"test_system": "sandbur", "test": "Test D sandbur", "type": "in vivo, Cenchrus echinatus", "details": "Preemergence, 0 to 100 scale; for Sandbur plant response rating: 0 no injury, 100 complete control", "in_short": "as §2"}, "tall mallow": {"test_system": "tall mallow", "test": "Test D tall mallow", "type": "in vivo, Malva sylvestris", "details": "Preemergence, 0 to 100 scale; for Tall Mallow plant response rating: 0 no injury, 100 complete control", "in_short": "as §2"}, "wild oat [2]": {"test_system": "wild oat", "test": "Test E wild oat", "type": "in vivo, Avena fatua", "details": "Preemergence"}, "goosegrass": {"test_system": "goosegrass", "test": "Test D goosegrass", "type": "in vivo, Eleusine indica", "details": "Preemergence, 0 to 100 scale", "in_short": "as §2"}, "wild oat [3]": {"test_system": "wild oat", "test": "Test B pre/postemergence wild oat", "type": "in vivo, Avena fatua", "in_short": "as §1"}, "winter wheat [4]": {"test_system": "winter wheat", "test": "Test E winter wheat", "type": "in vivo, Triticum aestivum", "details": "Preemergence"}, "bedstraw": {"test_system": "bedstraw", "test": "Test B pre/postemergence bedstraw", "type": "in vivo, Galium aparine", "in_short": "as §1"}, "[5]": {"details": "Rate 62 g/ha, 0 to 100 scale, 0 no effect, 100 complete control"}, "[6]": {"details": "Rate 125 g/ha, 0 to 100 scale (0 no effect, 100 complete control)"}, "[7]": {"details": "Postemergence, Rate 125 g/ha, scale of 0 to 10 where 0 is no effect and 10 is complete control"}, "[8]": {"details": "Preemergence, Rate 62 g/ha, scale 0 to 10 (0 no effect, 10 complete control)"}, "[9]": {"details": "Preemergence, Rate 125 g/ha, 0 is no effect, 10 is complete control"}, "[10]": {"details": "Preemergence, Rate 250 g/ha, scale 0 to 10, 0 is no effect, 10 is complete control"}, "[11]": {"details": "Preemergence, Rate 500 g/ha, scale 0 to 10 (0 no effect, 10 complete control)"}, "[12]": {"details": "Rate 62 g/ha, Postemergence, scale of 0 to 10 where 0 is no effect and 10 is complete control"}, "[13]": {"details": "Rate 250 g/ha, Postemergence, scale 0 to 10, 0 is no effect, 10 is complete control"}, "[14]": {"details": "Rate 64 g/ha, 0 no injury, 100 complete control"}, "[15]": {"details": "Rate 125 g/ha, 0 no injury, 100 complete control"}}, "data": [{"compound": "CC(C)N(C(=O)n1oc(=O)n(C)c1=O)c1ccc(F)cc1", "note": "[Compound 138]", "values": [{"measurement": "Plant response rating, Wheat (winter)", "setting": "winter wheat [1]; Rate 62 g/ha", "result": 60}, {"measurement": "Plant response rating, Wheat (winter)", "setting": "winter wheat [1]; Rate 125 g/ha", "result": 70}, {"measurement": "Wheat (winter) plant response rating", "setting": "winter wheat [1]; Rate 250 g/ha, 0 to 100 scale where 0 is no effect and 100 is complete control", "result": 80}, {"measurement": "Plant response rating, Blackgrass", "setting": "blackgrass; [5]", "result": 50}, {"measurement": "Plant response rating, Blackgrass", "setting": "blackgrass; [6]", "result": 60}, {"measurement": "Blackgrass plant response rating (0 to 100 scale)", "setting": "blackgrass; Rate 250 g/ha", "result": 70}, {"measurement": "Plant response rating, I. Ryegrass", "setting": "Italian ryegrass; [5]", "result": 60}, {"measurement": "Plant response rating, I. Ryegrass", "setting": "Italian ryegrass; [6]", "result": 70}, {"measurement": "I. Ryegrass plant response rating (0 to 100 scale)", "setting": "Italian ryegrass; Rate 250 g/ha", "result": 80}, {"measurement": "Plant response rating, Barley (winter)", "setting": "winter barley; [5]", "result": 30}, {"measurement": "Plant response rating, Barley (winter)", "setting": "winter barley; [6]", "result": 60}, {"measurement": "Barley (winter) plant response rating (0 to 100 scale)", "setting": "winter barley; Rate 250 g/ha", "result": 90}, {"measurement": "B. signalgrass plant response rating", "setting": "surinam grass; [7]", "result": 7}, {"measurement": "B. signalgrass plant response rating", "setting": "surinam grass; [8]", "result": 2}, {"measurement": "B. signalgrass plant response rating (0 to 10 scale)", "setting": "surinam grass; [9]", "result": 4}, {"measurement": "B. signalgrass plant response rating", "setting": "surinam grass; [10]", "result": 6}, {"measurement": "B. signalgrass plant response rating", "setting": "surinam grass; [11]", "result": 9}, {"measurement": "B. signalgrass plant response rating", "setting": "surinam grass; [12]", "result": 5}, {"measurement": "Plant response rating, B. signalgrass", "setting": "surinam grass; [13]", "result": 8}, {"measurement": "B. signalgrass plant response rating", "setting": "surinam grass; Rate 500 g/ha, Postemergence, scale of 0 to 10 where 0 is no effect and 10 is complete control", "result": 8}, {"measurement": "Plant response rating, Johnsongrass", "setting": "Johnson grass; [14]", "result": 40}, {"measurement": "Plant response rating, Johnsongrass", "setting": "Johnson grass; [15]", "result": 65}, {"measurement": "Plant response rating, Johnsongrass", "setting": "Johnson grass; Rate 250 g/ha", "result": 100}, {"measurement": "Plant response rating, Johnsongrass", "setting": "Johnson grass; Rate 500 g/ha", "result": 100}, {"measurement": "Plant response rating, Green foxtail", "setting": "green foxtail; [5]", "result": 60}, {"measurement": "Plant response rating, Green foxtail", "setting": "green foxtail; [6]", "result": 70}, {"measurement": "Green foxtail plant response rating (0 to 100 scale)", "setting": "green foxtail; Rate 250 g/ha", "result": 75}, {"measurement": "Barnyardgrass plant response rating", "setting": "bamyardgrass; Postemergence (flood test species), Rate 125 g/ha, scale of 0 to 10 where 0 is no effect and 10 is complete control", "result": 0}, {"measurement": "Barnyardgrass plant response rating", "setting": "bamyardgrass; Rate 31 g/ha, Postemergence section (flood test species), scale 0 to 10", "result": 0}, {"measurement": "Barnyardgrass plant response rating", "setting": "bamyardgrass; Rate 62 g/ha, Postemergence section, flood test species, scale of 0 to 10 where 0 is no effect and 10 is complete control", "result": 0}, {"measurement": "Plant response rating, Barnyardgrass", "setting": "bamyardgrass; Rate 250 g/ha, Postemergence (flood test), scale 0 to 10, 0 is no effect, 10 is complete control", "result": 8}, {"measurement": "Sandbur plant response rating", "setting": "sandbur; Rate 64 g/ha", "result": 65}, {"measurement": "Sandbur plant response rating", "setting": "sandbur; Rate 125 g/ha", "result": 65}, {"measurement": "Plant response rating, Sandbur", "setting": "sandbur; Rate 250 g/ha", "result": 98}, {"measurement": "Plant response rating, Sandbur", "setting": "sandbur; Rate 500 g/ha", "result": 100}, {"measurement": "Tall Mallow plant response rating", "setting": "tall mallow; Rate 64 g/ha", "result": 40}, {"measurement": "Tall Mallow plant response rating", "setting": "tall mallow; Rate 125 g/ha", "result": 40}, {"measurement": "Plant response rating, Tall Mallow", "setting": "tall mallow; Rate 250 g/ha", "result": 70}, {"measurement": "Plant response rating, Tall Mallow", "setting": "tall mallow; Rate 500 g/ha", "result": 100}, {"measurement": "Plant response rating, Wild oat", "setting": "wild oat [2]; [5]", "result": 50}, {"measurement": "Plant response rating, Wild oat", "setting": "wild oat [2]; [6]", "result": 60}, {"measurement": "Wild oat plant response rating (0 to 100 scale)", "setting": "wild oat [2]; Rate 250 g/ha", "result": 65}, {"measurement": "Plant response rating, Goosegrass", "setting": "goosegrass; [14]", "result": 98}, {"measurement": "Plant response rating, Goosegrass", "setting": "goosegrass; [15]", "result": 100}, {"measurement": "Plant response rating, Goosegrass", "setting": "goosegrass; Rate 250 g/ha", "result": 100}, {"measurement": "Plant response rating, Goosegrass", "setting": "goosegrass; Rate 500 g/ha", "result": 100}, {"measurement": "Wild oats plant response rating", "setting": "wild oat [3]; [7]", "result": 2}, {"measurement": "Wild oats plant response rating", "setting": "wild oat [3]; [8]", "result": 5}, {"measurement": "Wild oats plant response rating (0 to 10 scale)", "setting": "wild oat [3]; [9]", "result": 9}, {"measurement": "Wild oats plant response rating", "setting": "wild oat [3]; [11]", "result": 10}, {"measurement": "Wild oats plant response rating", "setting": "wild oat [3]; [12]", "result": 0}, {"measurement": "Plant response rating, Wild oats", "setting": "wild oat [3]; [13]", "result": 3}, {"measurement": "Wild oats plant response rating", "setting": "wild oat [3]; Rate 500 g/ha, Postemergence, scale 0 to 10", "result": 8}, {"measurement": "Plant response rating, Wheat (winter)", "setting": "winter wheat [4]; [5]", "result": 60}, {"measurement": "Plant response rating, Wheat (winter)", "setting": "winter wheat [4]; [6]", "result": 70}, {"measurement": "Wheat (winter) plant response rating (0 to 100 scale)", "setting": "winter wheat [4]; Rate 250 g/ha", "result": 80}, {"measurement": "Bedstraw plant response rating", "setting": "bedstraw; [7]", "result": 7}, {"measurement": "Bedstraw plant response rating", "setting": "bedstraw; [8]", "result": 5}, {"measurement": "Bedstraw plant response rating (0 to 10 scale)", "setting": "bedstraw; [9]", "result": 7}, {"measurement": "Bedstraw plant response rating", "setting": "bedstraw; [10]", "result": 10}, {"measurement": "Bedstraw plant response rating", "setting": "bedstraw; [11]", "result": 10}, {"measurement": "Bedstraw plant response rating", "setting": "bedstraw; [12]", "result": 2}, {"measurement": "Plant response rating, Bedstraw", "setting": "bedstraw; [13]", "result": 8}, {"measurement": "Bedstraw plant response rating", "setting": "bedstraw; Rate 500 g/ha, Postemergence, scale 0 to 10, 0 no effect, 10 complete control", "result": 9}]}]}
